According to PubChem BioAssay (NCI):
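In this assay, cells in 96-well plates receive the compound at five concentrations for 48 hours. Endpoints are linearly interpolated between the surrounding concentrations. GI50 marks 50% less growth. The concentration for full growth arrest is given as TGI.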

What was measured:
Experiment in all cases: NCI-60 cell line screen, 48 h
OVCAR-3 ovarian = test system: OVCAR-3 ovarian
SF-268 CNS = test system: SF-268 CNS
786-0 renal = test system: 786-0 renal
NCI-H460 lung = test system: NCI-H460 lung
MDA-MB-231 breast = test system: MDA-MB-231 breast
IGROV1 ovarian = test system: IGROV1 ovarian
CAKI-1 renal = test system: CAKI-1 renal
HCC-2998 colon = test system: HCC-2998 colon
SF-539 CNS = test system: SF-539 CNS
HOP-92 NSCLC = test system: HOP-92 NSCLC

Structure (SMILES) | TGI (OVCAR-3 ovarian) | TGI (SF-268 CNS) | TGI (786-0 renal) | TGI (NCI-H460 lung) | TGI (MDA-MB-231 breast) | TGI (IGROV1 ovarian) | TGI (CAKI-1 renal) | TGI (HCC-2998 colon) | TGI (SF-539 CNS) | GI50 (HOP-92 NSCLC) | TGI (HOP-92 NSCLC) | GI50 (OVCAR-3 ovarian) | GI50 (MDA-MB-231 breast) | GI50 (HCC-2998 colon) | GI50 (SF-539 CNS) | GI50 (SF-268 CNS) | GI50 (NCI-H460 lung) | GI50 (IGROV1 ovarian) | GI50 (CAKI-1 renal)
COc1cccc2c1CCc1sc(CN3CCN(C)CC3)nc1-2 | > 100 µM | > 100 µM | > 100 µM | > 100 µM | > 100 µM | > 100 µM | > 100 µM | > 100 µM | – | – | – | – | – | – | – | – | – | – | –
O=C(NNC(=O)c1ccccc1O)c1cccs1 | > 100 µM | > 100 µM | > 100 µM | > 100 µM | > 100 µM | > 100 µM | > 100 µM | – | > 100 µM | – | – | – | – | – | – | – | – | – | –
COc1ccc(CNCCN2C(=O)c3ccc4c5c(ccc(c35)C2=O)C(=O)N(CCNCc2ccc(OC)c(OC)c2OC)C4=O)c(OC)c1OC | 0.353 µM | – | – | – | 2.37 µM | – | – | 0.59 µM | – | 1.56 µM | 3.44 µM | 0.121 µM | 0.239 µM | 0.167 µM | – | – | – | – | –
COc1ccccc1-c1nc[nH]c1-c1ccccc1OC | > 100 µM | 65.3 µM | > 100 µM | > 100 µM | > 100 µM | > 100 µM | > 100 µM | – | – | – | > 100 µM | – | – | – | – | – | – | – | –
O=C(/C=C/c1cc2ccccc2[nH]c1=O)c1ccc(O)cc1 | 11.8 µM | 23.3 µM | – | 6.87 µM | 15 µM | 45.1 µM | > 100 µM | 16 µM | 8.64 µM | 3.26 µM | 23.2 µM | 3.22 µM | 3.51 µM | 4.13 µM | 2.55 µM | 3.76 µM | 2.39 µM | 4.35 µM | 4.71 µM
CC(NC(=O)C(NC(=O)C(NC(=O)C(F)(F)F)C(C)C)C(C)C)C(=O)Oc1c(Cl)c(Cl)c(Cl)c(Cl)c1Cl (stereo unspecified) | > 100 µM | > 100 µM | – | > 100 µM | > 100 µM | > 100 µM | > 100 µM | > 100 µM | > 100 µM | – | > 100 µM | – | – | – | – | – | – | – | –
Cc1[nH]c(-c2ccccc2)c(O)c1C(=O)OC1CC(C)CCC1C(C)C (stereo unspecified) | 25.2 µM | 29.4 µM | 28.6 µM | 28.6 µM | 29 µM | 29 µM | 32.2 µM | – | 29.7 µM | – | 32.7 µM | – | – | – | – | – | – | – | –
CCOC(=O)C1=C(C)NC(c2ccccc2)=C(C(=O)OCc2ccccc2)C1C#Cc1ccccc1 (stereo unspecified) | > 100 µM | > 100 µM | > 100 µM | – | – | > 100 µM | 57.4 µM | – | > 100 µM | – | – | – | – | – | – | – | – | – | –
COc1cc2ccnc3c2c(c1OC)N(C)C=C3 | > 100 µM | > 100 µM | 53.6 µM | 29 µM | 80.6 µM | – | 44.8 µM | 33.8 µM | – | – | – | – | – | – | – | – | – | – | –
CN1C(=O)c2c(c3c4ccccc4n(C)c3c3c2c2ccccc2n3C)C1=O | > 100 µM | – | > 100 µM | > 100 µM | > 100 µM | > 100 µM | > 100 µM | > 100 µM | > 100 µM | – | > 100 µM | – | – | – | – | – | – | – | –
Cn1c(=Nc2ccccc2[N+](=O)[O-])sc2ccccc21 | – | > 100 µM | > 100 µM | > 100 µM | > 100 µM | > 100 µM | > 100 µM | > 100 µM | > 100 µM | – | 61.7 µM | – | – | – | – | – | – | – | –
CCCCCCCCC/C=C1/CC(CO)(COC(=O)C2CCCCC2)OC1=O (stereo unspecified) | > 100 µM | > 100 µM | > 100 µM | > 100 µM | > 100 µM | > 100 µM | > 100 µM | > 100 µM | – | – | > 100 µM | – | – | – | – | – | – | – | –
Nc1nc(Cl)cc(OCC2(CO)CCCCC2)n1 | > 100 µM | > 100 µM | > 100 µM | > 100 µM | – | > 100 µM | – | 82.1 µM | > 100 µM | – | > 100 µM | – | – | – | – | – | – | – | –
CCc1cc2c(cc1O)CC[C@@H]1[C@@H]2CC[C@]2(C)[C@@H](O)CC[C@@H]12 | 11.5 µM | 24.6 µM | 17.8 µM | 20.9 µM | 21.4 µM | 28.4 µM | 20.8 µM | 24 µM | 9.5 µM | – | – | 2.94 µM | – | – | 3.27 µM | – | – | – | –
CCN1CC2(CO)CCC(OC)C34C5CC6C(OC)CC(O)(C5C6OC)C(O)(C(OC)C23)C14 (stereo unspecified) | > 174 µM | > 375 µM | – | > 375 µM | – | > 375 µM | > 375 µM | > 375 µM | > 375 µM | – | > 375 µM | – | – | – | – | – | – | – | –
OC[C@H](O)[C@@H](OCc1ccccc1)[C@H](NCc1ccccc1)c1cccs1 | > 100 µM | > 100 µM | > 100 µM | > 100 µM | > 100 µM | > 100 µM | > 100 µM | – | > 100 µM | – | > 100 µM | – | – | – | – | – | – | – | –
O=C(N/N=C/c1ccc(O)cc1)NNCCO | > 100 µM | – | > 100 µM | > 100 µM | > 100 µM | > 100 µM | > 100 µM | > 100 µM | > 100 µM | – | – | – | – | – | – | – | – | – | –
C=C1C(=O)OC2C=C(C)CC3C=C(CCC=C(C)CCC12)C(=O)O3 (stereo unspecified) | 116 µM | 145 µM | – | 148 µM | – | 115 µM | 140 µM | 105 µM | 199 µM | – | 116 µM | – | – | – | – | – | – | – | –
COC(=O)[C@@]1(Cc2ccc(OC(C)=O)cc2)Cc2cc3ccccc3n2N1 | > 100 µM | > 100 µM | > 100 µM | – | > 100 µM | > 100 µM | > 100 µM | – | > 100 µM | – | > 100 µM | – | – | – | – | – | – | – | –
C[C@]12CC[C@@H]3c4cc(C=O)c(OCc5ccccc5)cc4CC[C@H]3[C@@H]1CCC2OCc1ccccc1 (stereo partly specified) | > 100 µM | > 100 µM | > 100 µM | > 100 µM | > 100 µM | – | > 100 µM | > 100 µM | > 100 µM | – | > 100 µM | – | – | – | – | – | – | – | –
COC(=O)c1cc(NC(=O)Cn2c3ccccc3c3ccccc32)cn1C | > 100 µM | > 100 µM | 72.2 µM | > 100 µM | 48.8 µM | > 100 µM | > 100 µM | > 100 µM | 63.1 µM | – | – | – | – | – | – | – | – | – | –
CSCCC(NOC(=O)Cc1ccccc1)P(=O)(O)c1ccccc1 (stereo unspecified) | > 100 µM | – | – | > 100 µM | > 100 µM | > 100 µM | > 100 µM | > 100 µM | – | – | > 100 µM | – | – | – | – | – | – | – | –
CCN(CC)CCNC(=O)C1COc2ccc(-c3cc(=O)c4ccccc4o3)cc2O1 (stereo unspecified) | 41.4 µM | 55.9 µM | – | 36.2 µM | – | 63.5 µM | 43.3 µM | 35.4 µM | 30 µM | – | 53.9 µM | – | – | – | – | – | – | – | –
